The values that follow come from patent US20180161290A1, “Dosage Regimen of Diaryl Sulfide Derivatives” (Novartis AG, priority 2010, published 2018).

The structures appear in SMILES notation.

Data set [1] concerns healthy subjects. Briefly: Multiple ascending dose study in healthy subjects: blood lymphocyte levels. In kind it is in vivo, human. As for the experimental part: For example in tests on healthy subjects, the maximum percent decrease (geometric mean, 95% confidence interval) from pre-dose blood lymphocyte levels during once daily dosing of compound A for 14 days (28 days for the 2 mg dose level) in healthy subjects was 39% for 0.3 mg, 65% for 0.6 mg, 74% for 1.2 mg, 83% for 2 mg and 77% for 3 mg. The corresponding reduction in the placebo group was 29%, which may be explained by the normal lymphocyte level variability and the definition of the endpoint.
(§1) Multiple ascending doses of compound A were investigated in healthy subjects. 60 subjects in 5 cohorts (12 subjects per cohort) were dosed at 0.3 mg, 0.6 mg, 1.2 mg and 3 mg once daily for 14 days and at 2 mg for 28 days. In each cohort, subjects were randomised between compound A (9 subjects) and placebo (3 subjects).

Data set [2] concerns healthy subjects. The data set is described as follows: Multiple ascending dose study in healthy subjects: effect on heart rate (Example 1). In kind it is in vivo, human. The settings on record: 0.3, 0.6, 1.2, 2 and 3 mg once daily, hourly average heart rate, FIG. 1. The method, then: The effect on heart rate of 2-amino-2-[4-(3-benzyloxyphenylthio)-2-chlorophenyl]ethyl propane-1,3-diol (Compound A, or KRP203) was measured in healthy subjects over a period of 28 days and compared to placebo.
as §1
The day 28 graphic compares placebo and 2 mg dose.

Data set [3] deals with healthy male volunteers. The data set is described as follows: Double blind, placebo controlled, dose titration, once daily multiple oral dose study (Example 2). Particulars: for hourly minimum HR (heart rate) change from baseline: FIG. 3. Format: in vivo, human. As for the experimental part: A total of 56 healthy male volunteers were enrolled in a double blind, parallel, placebo controlled, dose titration, once daily, multiple oral dose study. 53 (95%) subjects completed the study.
Increasing doses of 2-amino-2-[4-(3-benzyloxyphenylthio)-2-chlorophenyl]ethyl-propane-1,3-diol (Compound A) starting at 0.3 mg o.d. or 0.5 mg o.d. and ending at the maximal therapeutic dose of 2 mg o.d. were administered to the subjects as specified in Table 1 below.
Each subject participated in a maximal 21-day Screening period, a Baseline period (Day −2), Run-in period (Day −1), a 21-day treatment period, 14-day Follow up period (with a Follow up visit on Day 35) and study completion assessments on Day 42. Subjects were assigned to one of the four groups (#1 or #2 dose titration group, placebo- or fixed-dose group) and received the once daily (o.d.) treatment in a double blinded manner.
On Day -1 (Run-in), all subjects received placebo and underwent baseline assessments including 24 hour Holter monitoring.
All the study drugs were administered between 8:00 and 8:30, immediately after modest breakfast started 30 min prior to dosing. Dosing was performed as closely as practically possible between the subjects (e.g. within 15 min).
The primary variable, the daily number of bradycardia episodes as defined in the primary objective, were modeled by means of a repeated Poisson model adjusted for the number of bradycardia episodes at Baseline, the day, the treatment, and the treatment-by-day interaction. Generalized Estimating Equations were used to estimate the parameters of the model, including the mean (and 95% CI) number of bradycardia episodes for each treatment group on each day.
The primary objective of the study was assessed from the estimated ratio, obtained from the model above, between the mean number of bradycardia episodes on each ‘dose increase day’ in each titration regimen versus the mean number of bradycardia episodes on Day 1 in the fixed-dose group, and from the 95% CI for this ratio.
The treatment effect in term of other measures of bradycardia, including the change from baseline in hourly (daily) minimum and mean heart rates, was also investigated using an appropriate model.

For data set [4], the system named is healthy subjects. Particulars: 1.25 mg of FTY720; cited from earlier work.

Take `NC(CO)(CO)CCc1ccc(Sc2cccc(OCc3ccccc3)c2)cc1Cl` [Compound A, 2-amino-2-[4-(3-benzyloxyphenylthio)-2-chlorophenyl]ethyl-propane-1,3-diol]: the “maximum percent decrease (geometric mean) from pre-dose blood lymphocyte levels” value amounted to 39% in data set [1] (0.3 mg once daily for 14 days); 65% in data set [1] (0.6 mg once daily for 14 days); 74% in data set [1] (1.2 mg once daily for 14 days); 83% in data set [1] (2 mg once daily for 28 days); 77% in data set [1] (3 mg once daily for 14 days). Also, the “decrease in heart rate following dosing” value in data set [2] is on record as “observed to increase with increasing dosage”. Further, the “hourly minimum HR (heart rate) change from baseline” value in data set [3] (after Day 13, all subjects) is “no decrease in HR compared to matched baseline”; in data set [3] (fixed dose regimen 2 mg o.d.), “maximum decrease in HR on Days 1 & 2 compared to the 2 titration regimens and resolved by day 5”. Moreover, the safety and tolerability result in data set [3] (both titration regimens) is “safe and well tolerated”. Besides, in data set [3] (dose titration groups versus placebo), the “AE (adverse events) profile” value is listed as “No discernable difference”. In addition, the “number of bradycardia episodes per day” value in data set [3] (titration regimens T#1 and T#2 versus fixed dose 2 mg day 1, FIG. 2) is recorded as “Both titration regimens had less bradycardic episodes compared to fixed dose day 1”. The “SAEs (severe adverse events)” value in data set [3] (titration study, 21-day treatment) was “No SAEs (severe adverse events) were reported”.

As for `CCCCCCCCc1ccc(CCC(N)(CO)CO)cc1` [FTY720], in data set [4], the “decrease in heart rate” value is given as “approximately 8 beats/min”.
